# Assay results from patent publication US8173645B2 (Takeda San Diego, Inc., priority 2007, dated 2012).
# Biological target: T1, glucokinase (GK), residues 12-465 of the human enzyme (Homo sapiens, UniProt P35557)
# T1 construct: I.D. No. 1 corresponds to residues 12-465 of glucokinase; made in house; host or cells: E. coli DH10b-Tlr
# T1 sequence (P35557 with tags, fused parts or gaps isoform P35557-2): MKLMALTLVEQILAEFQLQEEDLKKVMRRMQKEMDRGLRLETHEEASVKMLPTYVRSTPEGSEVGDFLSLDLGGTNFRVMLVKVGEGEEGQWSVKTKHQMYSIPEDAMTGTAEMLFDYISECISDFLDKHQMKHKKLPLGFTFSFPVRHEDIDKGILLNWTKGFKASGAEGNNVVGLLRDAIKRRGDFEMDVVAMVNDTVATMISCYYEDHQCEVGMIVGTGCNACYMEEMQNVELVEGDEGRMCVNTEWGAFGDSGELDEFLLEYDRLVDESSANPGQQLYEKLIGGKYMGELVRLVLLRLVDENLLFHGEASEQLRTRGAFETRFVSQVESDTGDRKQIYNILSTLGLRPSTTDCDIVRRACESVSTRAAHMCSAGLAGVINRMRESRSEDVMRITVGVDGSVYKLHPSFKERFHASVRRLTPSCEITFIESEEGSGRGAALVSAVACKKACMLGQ
# Experiment: Enzymatic glucokinase activity assay (KinaseGlo luminescence, ATP consumption)
# Assay type: biochemical
# Settings: 5 μM ATP, 5 mM Glucose; for EC50: GK activation, Kact = concentration giving 50% of the maximal increase in GK activity, read-out: pKact; for Emax: calculated maximal gain in GK enzyme activity at a saturating concentration of the compound, read-out: % ACTmax
# Source text: The activity of compounds as glucokinase activators may be assayed in vitro, in vivo or in a cell line. Provided below is an enzymatic glucokinase activity assay.
# Purified glucokinase may be obtained as follows. DNA encoding residues 12-465 of the full-length sequence of the human enzyme may be amplified by PCR and cloned into the HindIII and EcoRI sites of pFLAG-CTC (Sigma). SEQ. I.D. No. 1 corresponds to residues 12-465 of glucokinase.
# The expression of recombinant glucokinase protein may be carried out by transformation and growth of DH10b-Tlr E. coli cells incorporating the (pFLAG-CTC) plasmid in LB media. Protein expression can be induced in this system by the addition of IPTG to the culture medium.
# Recombinant protein may be isolated from cellular extracts by passage over Sepharose Q Fast Flow resin (Pharmacia). This partially purified GK extract may then be further purified by a second passage over Poros HQ 10 (Applied Biosystems). The purity of GK may be determined on denaturing SDS-PAGE gel. Purified GK may then be concentrated to a final concentration of 20.0 mg/ml. After flash freezing in liquid nitrogen, the proteins can be stored at −78° C. in a buffer containing 25 mM TRIS-HCl pH 7.6, 50 mM NaCl, and 0.5 mM TCEP.
# The activation properties of compounds for GK may be determined using a black 384-well-plate format under the following reaction conditions: 25 mM Hepes pH 7.2, 25 mM NaCl, 10 mM MgCl2, 0.01% Brij35, 1 mM DTT, 5 μM ATP, 5 mM Glucose 2% DMSO. The amount of ATP consumed may be determined quantitatively by addition of equal volume of luciferase reagent (luciferase+beetle luciferin—KinaseGlo Luminescent Kinase Assay kit from Promega). The luminescence intensity may be measured by using the Analyst HT from LJL Biosystems.
# The assay reaction may be initiated as follows: 4 μl of substrate mixture (12.5 μM ATP and 12.5 mM Glucose) was added to each well of the plate, followed by the addition of 2 μl of activator (2 fold serial dilutions for 11 data points for each activator) containing 10% DMSO. 4 μL of 1.25 nM GK solution may be added to initiate the reaction. The reaction mixture may then be incubated at room temperature for 60 min, and quenched and developed by addition of 10 μL of luciferase reagent. Luminescence intensities of the resulting reaction mixtures may be measured after a 10 min incubation at room temperature. The luminescence intensity may be measured by using the Analyst HT from LJL Biosystems.
# pKact and % ACTmax values may be calculated by non-linear curve fitting of the compound concentrations and luminescence intensities to a standard inhibition/activation equation.
Structure (SMILES),EC50,Emax
"O=C(Nc1ncc(Cl)s1)[C@H](CC1CCOCC1)N1CCN(S(=O)(=O)C2CCCC2)CC1=O [Example 28, (S)-N-(5-chlorothiazol-2-yl)-2-(4-(cyclopentylsulfonyl)-2-oxopiperazin-1-yl)-3-(tetrahydro-2H-pyran-4-yl)propanamide]",≤ 631 nM,≥ 119%
"O=C(Nc1nccs1)[C@H](CC1CCCCC1)N1CCN(S(=O)(=O)c2cccc(OC(F)F)c2)CC1=O [Example 106, (S)-3-cyclohexyl-2-(4-(3-(difluoromethoxy)phenylsulfonyl)-2-oxopiperazin-1-yl)-N-(thiazol-2-yl)propanamide]",794 to 1260 nM,108 to 119%
"CC(C)C[C@@H](C(=O)Nc1ncc(Cl)s1)N1CCN(S(=O)(=O)C2CC2)CC1=O [Example 10, (S)—N-(5-chlorothiazol-2-yl)-2-(4-(cyclopropylsulfonyl)-2-oxopiperazin-1-yl)-4-methylpentanamide]",794 to 1260 nM,≥ 119%
"O=C(Nc1nccs1)[C@H](CC1CCCCC1)N1CCN(C(=S)Nc2ccccc2OC(F)(F)F)CC1=O [Example 136, (S)-3-cyclohexyl-2-(2-oxo-4-(2-(trifluoromethoxy)phenylcarbamothioyl)piperazin-1-yl)-N-(thiazol-2-yl)propanamide]",794 to 1260 nM,≥ 119%
"NC(=O)Nc1ccc(S(=O)(=O)N2CCN([C@@H](CC3CCCCC3)C(=O)Nc3nccs3)C(=O)C2)cc1 [Example 64, (S)-3-cyclohexyl-2-(2-oxo-4-(4-ureidophenylsulfonyl)piperazin-1-yl)-N-(thiazol2-yl)propanamide]",≥ 3160 nM,97.1 to 107%
"Cc1ccc([N+](=O)[O-])cc1S(=O)(=O)N1CCN([C@@H](CC2CCCCC2)C(=O)Nc2nccs2)C(=O)C1 [Example 199, (S)-3-cyclohexyl-2-(4-(2-methyl-5-nitrophenylsulfonyl)-2-oxopiperazin-1-yl)-N-(thiazol-2-yl)propanamide]",≤ 631 nM,74.1 to 97%
"O=C(Nc1nccs1)[C@H](CC1CCCCC1)N1CCN(S(=O)(=O)c2cccc3ccccc23)CC1=O [Example 65, (S)-3-cyclohexyl-2-(4-(naphthalen-1-ylsulfonyl)-2-oxopiperazin-1-yl)-N-(thiazol-2-yl)propanamide]",1580 to 2510 nM,≤ 74%
"O=C(Nc1nccs1)[C@H](CC1CCCCC1)N1CCN(S(=O)(=O)CCC(F)(F)F)CC1=O [Example 100, (S)-3-cyclohexyl-2-(2-oxo-4-(3,3,3-trifluoropropylsulfonyl)piperazin-1-yl)-N-(thiazol-2-yl)propanamide]",794 to 1260 nM,≥ 119%
"Cn1ccc(S(=O)(=O)N2CCN([C@@H](CC3CCCCC3)C(=O)Nc3nccs3)C(=O)C2)n1 [Example 112, (S)-3-cyclohexyl-2-(4-(1-methyl-1H-pyrazol-3-ylsulfonyl)-2-oxopiperazin-1-yl)-N-(thiazol-2-yl)propanamide]",≤ 631 nM,108 to 119%
"O=C(Nc1nccs1)[C@H](CC1CCCCC1)N1CCN(S(=O)(=O)c2ccc3c(c2)OCCO3)CC1=O [Example 53, (S)-3-cyclohexyl-2-(4-(2,3-dihydrobenzo[b][1,4]dioxin-6-ylsulfonyl)-2-oxopiperazin-1-yl)-N-(thiazol-2-yl)propanamide]",794 to 1260 nM,74.1 to 97%
"O=C(Nc1nccs1)[C@H](CC1CCCCC1)N1CCN(S(=O)(=O)c2ccccc2C(F)(F)F)CC1=O [Example 71, (S)-3-cyclohexyl-2-(2-oxo-4-(2-(trifluoromethyl)phenylsulfonyl)piperazin-1-yl)-N-(thiazol-2-yl)propanamide]",≤ 631 nM,108 to 119%
"CCc1ccc(S(=O)(=O)N2CCN([C@@H](CC3CCCCC3)C(=O)Nc3nccs3)C(=O)C2)cc1 [Example 225, (S)-3-cyclohexyl-2-(4-(4-ethylphenylsulfonyl)-2-oxopiperazin-1-yl)-N-(thiazol-2-yl)propanamide]",794 to 1260 nM,97.1 to 107%
"O=C(Nc1nccs1)[C@H](CC1CCCCC1)N1CCN(S(=O)(=O)c2ccc(-c3ccno3)s2)CC1=O [Example 174, (S)-3-cyclohexyl-2-(4-(5-(isoxazol-5-yl)thiophen-2-ylsulfonyl)-2-oxopiperazin-1-yl)-N-(thiazol-2-yl)propanamide]",1580 to 2510 nM,≤ 74%
"O=C(Nc1nccs1)[C@H](CC1CCCCC1)N1CCN(S(=O)(=O)Cc2cccc(C(F)(F)F)c2)CC1=O [Example 213, (S)-3-cyclohexyl-2-(2-oxo-4-(3-(trifluoromethyl)benzylsulfonyl)piperazin-1-yl)-N-(thiazol-2-yl)propanamide]",1580 to 2510 nM,74.1 to 97%
"Cc1ccc(S(=O)(=O)N2CCN([C@@H](CC3CCCCC3)C(=O)Nc3nccs3)C(=O)C2)cc1 [Example 202, (S)-3-cyclohexyl-2-(2-oxo-4-tosylpiperazin-1-yl)N-(thiazol-2-yl)propanamide]",1580 to 2510 nM,108 to 119%
"Cn1nc(C(F)(F)F)cc1-c1ccc(S(=O)(=O)N2CCN([C@@H](CC3CCCCC3)C(=O)Nc3nccs3)C(=O)C2)s1 [Example 193, (S)-3-cyclohexyl-2-(4-(5-(1-methyl-3-(trifluoromethyl)-1H-pyrazol-5-yl)thiophen-2-ylsulfonyl)-2-oxopiperazin-1-yl)-N-(thiazol-2-yl)propanamide]",≤ 631 nM,≤ 74%
"O=C(Nc1ncc(F)s1)[C@H](CC1CCOCC1)N1CCN(S(=O)(=O)C2CC2)CC1=O [Example 21, (S)-2-(4-(cyclopropylsulfonyl)-2-oxopiperazin-1-yl)-N-(5-fluorothiazol-2-yl)-3-(tetrahydro-2H-pyran-4-yl)propanamide]",1580 to 2510 nM,108 to 119%
"O=C(Nc1nccs1)[C@H](CC1CCCCC1)N1CCN(S(=O)(=O)c2ccc(Br)cc2)CC1=O [Example 204, (S)-2-(4-(4-bromophenylsulfonyl)-2-oxopiperazin-1-yl)-3-cyclohexyl-N-(thiazol-2-yl)propanamide]",1580 to 2510 nM,74.1 to 97%
"Cc1cc(S(=O)(=O)N2CCN([C@@H](CC3CCCCC3)C(=O)Nc3nccs3)C(=O)C2)c(C)cc1Cl [Example 186, (S)-2-(4-(4-chloro-2,5-dimethylphenylsulfonyl)-2-oxopiperazin-1-yl)-3-cyclohexyl-N-(thiazol-2-yl)propanamide]",≤ 631 nM,≤ 74%
"O=C(Nc1nccs1)[C@H](CC1CCCCC1)N1CCN(S(=O)(=O)Cc2ccc(C(F)(F)F)cc2)CC1=O [Example 210, (S)-3-cyclohexyl-2-(2-oxo-4-(4-(trifluoromethyl)benzylsulfonyl)piperazin-1-yl)-N-(thiazol-2-yl)propanamide]",≥ 3160 nM,≤ 74%
"O=C(Nc1nccs1)[C@H](CC1CCCCC1)N1CCN(S(=O)(=O)c2ccc(Cl)s2)CC1=O [Example 172, (S)-2-(4-(5-chlorothiophen-2-ylsulfonyl)-2-oxopiperazin-1-yl)-3-cyclohexyl-N-(thiazol-2-yl)propanamide]",≤ 631 nM,97.1 to 107%
"O=C(Nc1nccs1)[C@H](CC1CCCCC1)N1CCN(S(=O)(=O)c2ccc(F)cc2)CC1=O [Example 89, (S)-3-cyclohexyl-2-(4-(4-fluorophenylsulfonyl)-2-oxopiperazin-1-yl)-N-(thiazol-2-yl)propanamide]",794 to 1260 nM,97.1 to 107%
"O=C(Nc1nccs1)[C@H](CC1CCCCC1)N1CCN(C(=S)NCc2ccccc2)CC1=O [Example 82, (S)-2-(4-(benzylcarbamothioyl)-2-oxopiperazin-1-yl)-3-cyclohexyl-N-(thiazol-2-yl)propanamide]",1580 to 2510 nM,108 to 119%
